This is an account of results in a melting point compilation (Tetko et al.; mined from patent text by program, amines drawn as free bases though some values may be those of a salt).

Each structure is given as a SMILES string.

Broadly, the melting point is the temperature, or range, at which the solid turns liquid.

`CCS(=O)(=O)CCC(=O)NNC(=O)N1Cc2ccccc2Oc2ccc(C#N)cc21` registered a melting point of 188 to 190 °C.
The result for `CCC(CC)c1nn(-c2ccc(Br)cn2)cc1CCCOc1c(C)cccc1CC(=O)O` reads 120 to 121 °C.
With `CCCCNS(=O)(=O)c1cc(C(=O)Cl)ccc1Cl`, the melting point stood at 110 °C.
For the molecule `CC1(C)OC(=O)Nc2ccc(-c3cc(Cl)cc(C#N)c3)cc21`, the melting point was 256 to 257 °C.
As to `CC(C(=O)NN1CCOCC1)C(C#N)(c1ccccc1)c1ccccc1` (stereo not drawn), the melting point lay within 210 to 215 °C.
In turn, `C=CC(=O)OCCS(=O)(=O)c1ccc(O)cc1` had a melting point of 91 to 92 °C.
For the molecule `Cc1nsc(CCCOc2c(C)cc(-c3noc(C)n3)cc2C)n1`, the melting point lay in the range of 67 to 71 °C.
As to `O=C(O)Cc1c(C(=O)O)c2cc(Oc3cccc(Cl)c3)ccc2n1-c1ccccc1`, the melting point fell in the range of 192 to 194 °C.
To `CC(C)(C)c1cc(CCc2ccccc2NC(=O)NC2CCN(Cc3ccc(C#N)cc3)CC2)cc(C(C)(C)C)c1O` belongs 197 to 198 °C; to `Cc1n[nH]c(-c2ccccc2)c1-c1ccncc1`, 212 to 214 °C; to `Cc1nc2ccccc2n2cnc(C(=O)OC(C)C)c12`, 182 to 183 °C.
As to `COC(=O)C(C)(N)Cc1csc2ccccc12` (stereo not drawn), the melting point was 44 to 45 °C.
`O=C(Nc1cccc(S(=O)(=O)c2ccccn2)c1)C(O)(C(F)(F)F)C(F)(F)F` had a melting point of 264 to 267 °C.
Turning to `CCOC(=O)c1cc(O)cc2cc(-c3ccc(O)cc3)oc12`, the melting point was in the range of 221 to 223 °C.
The result for `CC(=O)OCCC1CC2=C(O1)C(C)=CC(C)(O)C2C` (racemic) reads 90 to 92 °C.
To `CC=C1CC1C(=C1C(=O)OC(=O)C1c1cc(C)n(-c2ccccc2)c1C)C1CC1` (stereo not drawn) belongs 145 °C; to `C[C@]12C=CC(=O)N[C@@H]1CCc1cc(-c3cccc([N+](=O)[O-])c3)ccc12`, 205 to 206 °C.
The molecule `O=C(O)c1cc2cc(Cl)ccc2nc1N[C@@H](CO)Cc1ccccc1` returned a melting point of 213 to 216 °C.
To `CC(=O)NC[C@H]1CN(c2ccc(N3CCC(Cc4noc(C)n4)CC3)c(F)c2)C(=O)O1` belongs 136 to 138 °C.
For the molecule `CCOC(=O)N1CCC23CCCCC12c1ccccc1CC3` (stereo not drawn), the melting point lay within 67 to 69 °C.
As for `ClCCCc1nc2ccccn2n1`, the melting point was in the range of 56.5 to 57 °C.
In turn, `O=C(Cl)OCC1c2c(c3ccccc3c3ccccc23)-c2c1c1ccccc1c1ccccc21` displayed a melting point of 188 to 189 °C.
To `O=C(Cn1c(-c2ccc(Cl)cc2)nc2cccnc21)NC1CCCC1` belongs 260 to 261 °C; to `Cn1c(=O)[nH]c(=O)c2c1ncn2CC(C)(C)O`, 268 to 269 °C.
Regarding `O=C(C1=C(Nc2ccccc2)CCC1)c1ccccc1Br`, the melting point was 106 to 108 °C.
Molecule `CCCc1nc2ccnn2c(O)c1Cc1ccc(-c2ccccc2-c2nnn[nH]2)cc1` returned a melting point greater than 320 °C.
As for `O=C(O)C1CCN(S(=O)(=O)c2ccc(Br)cc2)CC1`, the melting point is 225 to 227 °C.
To `COC(=O)C(C)(C)OCc1cc2cc(Cl)ccc2n1S(=O)(=O)c1cc(C)cc(C)c1` belongs 110 to 112 °C; to `CN(C)C(CN1CCN(c2ccc(F)cc2)CC1)CN1c2cccc3cccc(c23)S1(=O)=O` (stereo not drawn), 118 °C; to `Cc1c(-c2ccc(OC3CCCC3)cc2)[nH]c2ccc(OCc3ccccc3)cc12`, 161 to 167 °C.
Molecule `C#CCOc1ccc2cc(C(=O)OCC)c(=O)oc2c1` yielded a melting point of 252 °C.
To `CC(C)(C)Cc1c(C(C)(C)C)ssc1=S` belongs 81 °C; to `COC(=O)[C@H](Cc1ccc(N)cc1)NC(=O)OC(C)(C)C`, 86 to 89 °C; to `Cc1cn(-c2cc(C)c3[nH]c(=O)ccc3c2)c(C)n1`, 322 to 325 °C.
As to `CON=C(C)c1ccc(N2CC(CO)OC2=O)cc1` (stereo not drawn), the melting point lay in the range of 149 to 150 °C.
Consider `CC(C(=O)NCC(COC(=O)C(C)(C)C)Cc1ccc(C(C)(C)C)cc1)c1ccc(NS(C)(=O)=O)cc1` (stereo not drawn), for which the melting point was in the range of 97 to 100 °C.
On to `NC(=O)c1ccc(-c2ccc3nnn(Cc4ccc5ncccc5c4)c3n2)cc1Cl`, for which the melting point is 212 to 215 °C.
In the case of `CC(Oc1cc(O)ccc1[N+](=O)[O-])C(=O)O` (stereo not drawn), the melting point fell in the range of 190 to 195 °C.
On to `NC(=NCC(F)(F)F)Nc1ccnc(CCCCO)n1`, for which the melting point was 135 to 136 °C.
The molecule `Fc1cc(OCCBr)ccc1OCc1ccccc1` came in with a melting point of 63 to 65 °C.
In the case of `COc1ccc(CCNCC(O)CO)cc1OC` (stereo not drawn), the melting point is 80 to 82 °C.
The result for `COC(=O)c1ccc(OCCCNC(=O)C[C@H]2O[C@H](c3cccc(OC)c3OC)c3cc(Cl)ccc3N(CC(C)(C)CO)C2=O)cc1` reads 147 to 149 °C; that for `O=C(O)CN1C(=O)C(=Cc2ccc(Cl)cc2Cl)SC1=S`, greater than 237 °C.
In turn, `CCCc1cc(OC)c(OC)c(C(=O)NC[C@@H]2CCCN2CC)c1OC` yielded a melting point of 68 to 70 °C.
Turning to `CC1=C(c2ccccc2)C(c2ccccc2OCc2ccccc2)C([N+](=O)[O-])=C(C)N1` (stereo not drawn), the melting point was determined as 189 °C.
In the case of `CCOC(=O)Cc1cc(OC)c2c(c1)C1(O)C(=O)c3ccccc3C1(O)O2` (stereo not drawn), the melting point was in the range of 133 to 136 °C.
Turning to `COc1ccc(Cl)c(Oc2c(CCl)nc(N3CCOCC3)nc2NS(=O)(=O)c2ccc(C(C)C)cn2)c1`, the melting point was 205 °C.
Take `NC(=O)C1=CC=CNC=C1`: the melting point lay in the range of 167 to 171 °C.
`Cc1ccc2ccccc2c1C1OC(=O)NC1=O` (stereo not drawn) gave a melting point of 147 to 150 °C.
The molecule `COc1ccc([C@@H]2CN(C)CC[C@@H]2NC(=O)c2ccc(Cl)c(Cl)c2)cc1OC` (relative stereo) registered a melting point of 134 to 135 °C.
In turn, `O=S1N=C(NCCCN(Cc2cccs2)c2ccccn2)C(NCc2ccncc2)=N1` (stereo not drawn) displayed a melting point of 129 to 130 °C.
The molecule `COC(=O)c1cn2c3c(c(N4CCCC4)c(F)cc3c1=O)CCN2C` returned a melting point of 203 to 206 °C.
`CN1C(=O)C(C)(c2ccc(O)cc2)Sc2ccccc21` (stereo not drawn): the melting point is 158 to 160 °C.
Consider `OC1(c2cccs2)C(c2ccccc2Cl)SC2=NCCCCN21` (stereo not drawn), for which the melting point is 120 to 122 °C.
Turning to `CCOc1cc(-c2cnc3[nH]cc(C(=O)C(C)(C)C)c3n2)cc(N2CCCC2)c1`, the melting point fell in the range of 236 to 237 °C.
For `Cc1cc(F)ccc1-c1cscc1-c1ccc(S(C)(=O)=O)cc1`, the melting point was 158 to 160 °C.
In turn, `N=C(NCCCCC1CCN(CC(O)CO)CC1)NC(=O)c1nc(Cl)c(N)nc1N` (stereo not drawn) returned a melting point of 188 to 191 °C.
In turn, `CCc1cc2c(s1)-n1c(CCNC(=O)c3cc4ccccc4[nH]3)nnc1CN=C2c1ccccc1Cl` gave a melting point of 174 to 178 °C.
As to `COC(=O)C(=O)CC(=O)/C=C/c1ccc(Cl)cc1`, the melting point was 135 to 136 °C.
To `Brc1ccn(-c2ccc(-c3ccccc3)cc2)c1` belongs 141 to 143 °C; to `c1ccc(COc2ccc(-c3nc(COc4ccc(CCCn5ccnc5)cc4)co3)cc2)cc1`, 133 to 134 °C; to `CCCc1[nH]c2cc(C(=O)O)ccc2c1C(=O)C1CCCCC1`, 217 to 218 °C.
The molecule `O=S(=O)(N=CN(CCO)CCO)c1cc(Br)cc(Br)c1` yielded a melting point of 118 °C.
The molecule `Cc1cc(N2CC=C(C(=O)O)CC2)c2cccc(-c3ccc(Cl)cc3Cl)c2n1` yielded a melting point of 218 to 220 °C.
For `N#Cc1cnc2cc(-c3csc(CN4CCOCC4)c3)ccc2c1Nc1ccc(Cc2ccccc2)cc1`, the melting point was 228 to 230 °C.
With `COC(=O)c1ccc(Cc2cccc3ccc(C=C(C)C(=O)O)cc23)c(OC)c1`, the melting point was in the range of 187 to 188 °C.
`CCCN1CCC(=O)C2=C1CSc1ccc(OC)cc12` came in with a melting point of 108 to 110 °C.
Consider `Cc1cc(-c2ccc(C(F)(F)F)cc2)nc(-c2cccc(-c3cccc(S(N)(=O)=O)c3)n2)c1`, for which the melting point came to 229 °C.
Molecule `CC(Sc1nc(N)c(Br)c(Cl)n1)c1cc2ccccc2cn1` (stereo not drawn) displayed a melting point of 173 to 174 °C.
Regarding `COc1ccc(C(=O)OC2C=C(C)C(=O)CC(C)(C)C2OC(C)=O)cc1` (stereo not drawn), the melting point was 93 to 94 °C.
The result for `CC(C)COC(=O)N[C@@H](CC(C)C)C(=O)N[C@@H](Cc1ccccc1)C(=O)CSCc1ccco1` reads 89 to 90 °C; that for `COc1ccc2c(c1)C1=C(SCC3(CCN(CC(O)Cc4ccccc4)CC3)O1)C(=O)C2=O` (stereo not drawn), 106 °C; that for `OC1CCCN2CCCCC12` (stereo not drawn), 70 °C.
`O=C1CCSC(=S)N1c1c(F)c(F)c(F)c(F)c1F` gave a melting point of 164 °C.
For `O=C(c1ccccc1)c1cc([N+](=O)[O-])ccc1-n1nc(CCl)cc1CCl`, the melting point lay in the range of 152 to 155 °C.
Turning to `c1nc(-c2ccc3c(c2)OCO3)c2cc3c(cc2n1)OCO3`, the melting point is 180 to 185 °C.
The result for `CC(Cl)COC(C)c1ccc(O)cc1` (single isomer, unassigned; (+)) reads 50 to 51 °C; that for `COC(=O)c1nn(-c2c(Cl)cc(C(F)(F)F)cc2Cl)c(OC)c1SC(F)(F)F`, 97 to 98 °C.
`CCCCc1cc(O)n2nccc2n1` gave a melting point of 177 to 178 °C.
`CC(C)CN(CC(C)C)C(=O)c1c([N+](=O)[O-])cccc1[N+](=O)[O-]` showed a melting point of 97 to 99 °C.
Consider `CNC(=O)c1ccccc1Nc1nc(Nc2c(OC)ccc3c2C(=O)N(C)CCC3)ncc1Cl`, for which the melting point was in the range of 185 to 187 °C.
The result for `COc1ccc(/C=C(/C#N)c2cccs2)cc1OC1CCCC1` reads 100 to 101 °C.
With `COC(=O)COc1ccc(OC2CCN(c3ccncc3)CC2)cc1`, the melting point lay within 74 to 76 °C.
`CCN(CC)Cc1[nH]c(C)c(-c2ccnc(Nc3ccc(F)cc3)n2)c1C` returned a melting point of 71.9 to 74.2 °C.
To `CC(O)c1cc2c(s1)S(=O)(=O)CCc1cc(=O)n(-c3ccc(Cl)cc3)nc1-2` (stereo not drawn) belongs 233 to 235 °C.
With `O=C1CC(O)CN1C(=O)Nc1ccccc1` (stereo not drawn), the melting point turned out to be 104 °C.
To `CC(=O)Oc1ccccc1C(=O)NC(S(=O)C(C)C)C(Cl)(Cl)Cl` (stereo not drawn) belongs 90 to 92 °C; to `CC1=CC(c2ccccc2C(F)(F)F)C([N+](=O)[O-])=C(C)N1` (stereo not drawn), 201 °C.
